Patent US20020081665A1, “Bryostatins, bryopyrans and polyketides: compositions and methods” (priority 1999, published 2002)

Experiments:
melanoma = conditions: cited from earlier work; for side effects: compared with bryostatin 1, melanoma treatment; for effectiveness in treating melanoma: compared with bryostatin 1
lymphocytes [1] = conditions: in vitro; cited from earlier work
[2] = tested on: human breast cancer cells; conditions: cited from earlier work
lymphocytes [3] = conditions: cancer patients, intravenous administration; cited from earlier work
E. sertula = experiment: gentamicin treatment of B. neritina larvae, E. sertula and KSa levels by specific PCR; set-up: species or system Candidatus Endobugula sertula; conditions: about 100 micrograms per milliliter for about seven days post-settlement, grown out 3 months, vs untreated controls
Protocol: (§1) B. neritina larvae were treated with gentamicin at about 100 micrograms per milliliter for about seven days post-settlement, grown out for 3 months to re-establish their commensal bacterial flora, and then assayed for E. sertula levels and KSa levels by specific PCR and bryostatin activity by phorbol dibutyrate displacement (PdBu) assay (FIG. 7). The standard method for detecting bryostatins is the PdBu displacement assay (DeVries et al., 1988). Rat brain liposomes are incubated with tritiated PdBu, which binds to PKC in the liposomes. The liposomes are collected by filtration and counted in a scintillation counter. If an extract is added that contains a compound that can compete with phorbol for binding, less tritiated PdBu is bound. The assay has a subnanomolar detection limit for pure bryostatin 1 and is suitable for milligram quantities of sample. In B. neritina, the only compounds with PdBu activity are bryostatins, and PdBu activity is a good measure of total bryostatin activity.

B. neritina = experiment: gentamicin treatment of B. neritina larvae, bryostatin activity and growth of colonies; set-up: species or system Bugula neritina; conditions: about 100 micrograms per milliliter for about seven days post-settlement
Protocol: as §1

bryostatin 8
side effects (melanoma): milder side effects
effectiveness in treating melanoma (melanoma): as effective as bryostatin 1

CCC/C=C/C=C/C(=O)O[C@H]1/C(=C/C(=O)OC)C[C@H]2C[C@H]([C@@H](C)O)OC(=O)C[C@H](O)C[C@@H]3C[C@H](OC(C)=O)C(C)(C)[C@](O)(C[C@@H]4C/C(=C/C(=O)OC)C[C@H](/C=C/C(C)(C)[C@]1(O)O2)O4)O3 [bryostatin 1]
effect on lymphocytes in combination with IL-2 (lymphocytes [1]): enhances proliferation and IL-2 receptor expression on lymphocytes
sensitization to the cytotoxic effects of gemcitabine [2]: sensitized human breast cancer cells to the cytotoxic effects of gemcitabine
effect on IL-2-induced lymphocyte activity in patients (lymphocytes [3]): increased the potential of IL-2 to induce proliferation of LAK activity in lymphocytes

gentamicin
KSa levels (E. sertula; specific PCR): reduced dramatically
E. sertula population (E. sertula; FIG. 7): reduced dramatically
bryozoan growth rates, treated versus untreated colonies (B. neritina): the same
bryostatin activity of treated colonies (PdBu assay) (B. neritina; grown out 3 months, vs untreated controls): reduced

COC(=O)/C=C1/C[C@H]2C[C@]3(O)O[C@H](C[C@@H](O)CC(=O)O[C@@H]([C@@H](C)O)C[C@H]4C/C(=C\C(=O)OC)[C@H](OC(C)=O)[C@@](O)(O4)C(C)(C)/C=C/[C@@H](C1)O2)C[C@H](OC(=O)CC(C)C)C3(C)C [bryostatin 5]
side effects (melanoma): milder side effects
effectiveness in treating melanoma (melanoma): as effective as bryostatin 1
